Measurements from patent US20250099420A1, “SMALL MOLECULE MODULATORS OF GPR139 COMPLEX” (University of Florida Research Foundation, Incorporated, priority 2022, published 2025).

Experiments:
[1] = target: T1, GPR139 (Homo sapiens, UniProt Q6DWJ6); test: GPR139 Agonist titration / agonist counterscreen assay (calcium detection, HEK-GPR139 cells); type: cell-based; design: expressed in transfected cells; host or cells: HEK Aequorin cells, Maxcyte transient transfection; settings: for Averaged Max % Response (±St. Dev.): activity relative to known control
T1 sequence (Q6DWJ6 1-353): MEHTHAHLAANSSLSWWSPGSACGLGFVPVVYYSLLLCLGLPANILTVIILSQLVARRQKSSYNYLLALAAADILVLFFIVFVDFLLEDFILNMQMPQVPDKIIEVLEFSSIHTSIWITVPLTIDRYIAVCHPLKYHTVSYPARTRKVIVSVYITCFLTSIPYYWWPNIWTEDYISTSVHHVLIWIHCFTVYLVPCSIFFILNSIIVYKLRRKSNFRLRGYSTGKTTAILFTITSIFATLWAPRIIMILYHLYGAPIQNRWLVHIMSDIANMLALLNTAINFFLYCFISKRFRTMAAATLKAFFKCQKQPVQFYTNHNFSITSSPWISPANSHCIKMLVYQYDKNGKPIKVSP
Protocol: GPR activity was assessed using a calcium detection assay. […] Negative control samples were treated with DMSO. […] Intracellular calcium was measured using Calcium 5.

[2] = target: T1, GPR139; test: GPR139 Antagonist titration assay (calcium detection, HEK-GPR139 cells, vs EC80 of S-JNJ-63533054); settings: for GPR139 Antagonist Activity Averaged Max % Response (±St. Dev.): activity relative to known control; for GPR139 Antagonist Activity Lipophilic Efficiency (logD): based on logD; for GPR139 Antagonist Activity Lipophilic Efficiency (logP): based on logP; for GPR139 Antagonist Activity Hill Slope: fitted dose-response curve
Protocol: GPR activity was assessed using a calcium detection assay. GPR139 agonists stimulate an increase in intracellular calcium in HEK-GPR139 cells. Agonists increase the release of intracellular calcium, while antagonists decrease the release of intracellular calcium, as compared to an EC80 stimulation of the know agonist S-JNJ-63533054. The positive control for the agonist mode was cells treated with EC100 of known agonist S-JNJ-63533054. Negative control samples were treated with DMSO. The antagonist high control in cells was EC80 of S-JNJ-63533054+IC100 S-JNJ-3792165, while cells were treated with EC80 of S-JNJ-63533054+DMSO for the low control. Intracellular calcium was measured using Calcium 5.
HEK cells were transfected the DNA encoding GPR139 and incubated for 24 hours. 3000 cells/well in 3 μL HEPES and 1% DMSO were seeded into 1536-well plates. 3 μL Calcium 5 was then added to each well and cells were incubated for 60 min. at 37° C. in 5% CO2 and 95% relative humidity. Cells were pretreated with 50 nL DMSO (5 min. at room temperature in the dark) to stabilize response and desensitize cells to DMSO. A 5 second basal read was recorded and compounds in 30 nL were added to the cells, followed by a 150 second read.
B. Antagonist Mode: The “High Control” represented wells containing cells with GPR139+Antagonist IC100+Agonist EC80. “Low Control” represented wells containing cells with GPR139 with EC100 Agonist. “0% control” and sample field represented wells containing cells with GPR139 with EC80 Agonist with DMSO or compounds. The Z′ and S:B for this assay were calculated using the High Control and Low Control wells.
The HEK parental counterscreen utilized the same cells but not transfected with the plasmid. Acetylcholine was used in place of GPR139 agonist as the control compound. The cells were plated overnight, similar to the HEK antagonist counterscreen protocol.
The GPR139 Agonist and Antagonist titration assays employed the same reagents, protocols, and detection systems as the primary assays, but tested each as 10 point dose response starting at 676 nM concentration in triplicate with 1:3 dilutions. The HEK parental counterscreens utilized the same cells but not transfected with the plasmid. Acetylcholine was used in place of GPR139 agonist as the control compound. The cells were plated overnight, similar to the HEK antagonist counterscreen protocol.
For each test compound, percent activation was plotted against compound concentration. A four parameter equation describing a sigmoidal dose-response curve was then fitted with adjustable baseline using Assay Explorer software (Symyx Technologies Inc.).

[3] = system: parental HEK cells; test: HEK parental Antagonist Counterscreen Assay (non-transfected cells, acetylcholine control); type: cell-based; settings: for EC50: Homo sapiens, HEK293, acetylcholine as control, scientific notation, molarity
[4] = system: parental HEK cells; test: HEK parental Agonist Counterscreen Assay (non-transfected cells); type: cell-based; settings: for Averaged Max % Response (±St. Dev.): activity relative to known control
Excerpt: The high control for the agonist counterscreen was Forskolin not acetylcholine.

[5] = agonist counterscreen of the antagonists
[6] = agonist counterscreen of the antagonists, scientific notation, molarity, read-out: GRP139 Agonist activity EC50
[7] = GPR139 Agonist Activity, HEK-GPR139 cells, read-out: EC50
[8] = HEK Agonist Activity section of Table 4 (parental HEK counterscreen)
[9] = Homo sapiens, HEK293, HEK Agonist Activity section of Table 4 (parental HEK counterscreen)
[10] = GPR139 Agonist Activity, based on logD
[11] = GPR139 Agonist Activity, based on logP
[12] = GPR139 Agonist Activity, fitted dose-response curve
[13] = GPR139 Agonist Activity, ligand efficiency
[14] = GPR139 Agonist Activity, values printed in E-notation without unit, read-out: EC50
[15] = Homo sapiens, HEK293, HEK Agonist Activity, parental non-transfected HEK cells

| Structure (SMILES) | Efficiency Ligand ([1]; GPR139 Agonist Activity) | Hill Slope ([1]; GPR139 Agonist Activity) | Lipophilic Efficiency (logD) ([1]; GPR139 Agonist Activity) | Lipophilic Efficiency (logP) ([1]; GPR139 Agonist Activity) | EC50 [1, 7] [nM] | Averaged Max % Response (±St. Dev.) ([1]; GPR139 Agonist Activity) [%] | Lipophilic Efficiency (logD) ([4]; HEK Agonist Activity section) | Lipophilic Efficiency (logP) ([4]; HEK Agonist Activity section) | Averaged Max % Response (±St. Dev.) ([4]; HEK Agonist Activity section) [%] | EC50 [4, 9] [nM] | Lipophilic Efficiency (logD) [1, 10] | Lipophilic Efficiency (logP) [1, 11] | Hill Slope [1, 12] | Efficiency Ligand [1, 13] | EC50 [1, 14] [nM] | also measured |
| --- | --- | --- | --- | --- | --- | --- | --- | --- | --- | --- | --- | --- | --- | --- | --- | --- |
| CC1=NN(Cc2ccc(Cl)cc2Cl)C(=O)C1 [SR-01000043246] | – | – | – | – | – | – | – | – | – | – | – | – | – | – | – | GRP139 Agonist activity Averaged Max % Response (±St. Dev.) [1, 5]: 21.98 ± 2.69%; EC50 [1, 6]: > 15300 nM; EC50 [2]: 3900 nM; GPR139 Antagonist Activity Ligand Efficiency [2]: 0.47; GPR139 Antagonist Activity Averaged Max % Response (±St. Dev.) [2]: 80.83 ± 4.99%; GPR139 Antagonist Activity Lipophilic Efficiency (logD) [2]: 2.61; GPR139 Antagonist Activity Lipophilic Efficiency (logP) [2]: 2.61; GPR139 Antagonist Activity Hill Slope [2]: 1.01; HEK antagonist activity Averaged Max % Response (±St. Dev.) [3]: 6.06 ± 11.65%; EC50 [3]: > 15300 nM |
| COc1ccc(OC)c(NC2=C(Cl)C(=O)N(c3ccccc3C)C2=O)c1 [SR-01000228964] | – | – | – | – | – | – | – | – | – | – | – | – | – | – | – | GRP139 Agonist activity Averaged Max % Response (±St. Dev.) [1, 5]: −2.6E+0 ± 5.18 ^ %; EC50 [1, 6]: > 14100 nM; EC50 [2]: 2900 nM; GPR139 Antagonist Activity Ligand Efficiency [2]: 0.30; GPR139 Antagonist Activity Averaged Max % Response (±St. Dev.) [2]: 82.24 ± 3.16%; GPR139 Antagonist Activity Lipophilic Efficiency (logD) [2]: 2.79; GPR139 Antagonist Activity Lipophilic Efficiency (logP) [2]: 2.79; GPR139 Antagonist Activity Hill Slope [2]: 1.53; HEK antagonist activity Averaged Max % Response (±St. Dev.) [3]: 24.51 ± 4.86%; EC50 [3]: > 14100 nM |
| Cc1onc(-c2ccccc2Cl)c1C(=O)N1CCC(Cn2ccnc2C)CC1 [SR-01000925002] | 0.31 | 0.51 | 3.41 | 3.17 | 727 | 86.62 ± 3.28 | 2.12 | 1.88 | 17.46 ± 3.54 | – | – | – | – | – | – | EC50 [4, 8]: > 14100 nM |
| O=C(Cn1ccc2ccccc21)NC1CCN(Cc2ccccc2)CC1 [SR-01000925700] | 0.32 | 0.44 | 4.08 | 3.09 | 931 | 83.76 ± 7.63 | 2.90 | 1.91 | 10.33 ± 2.07 | > 14100 | – | – | – | – | – | – |
| O=C(Cn1cnc2ccccc21)NCCCn1ccc2ccccc21 [SR-01000926263] | – | – | – | – | – | 84.49 ± 4.10 | 2.29 | 2.29 | 12.91 ± 4.81 | > 14100 | 4.34 | 4.34 | 1.10 | 0.39 | 127 | – |
| O=C(Cn1ccc2ccccc21)NCCCC(=O)Nc1cccc2cccnc12 [SR-01000926510] | 0.30 | 0.38 | 3.52 | 3.52 | 490 | 89.57 ± 9.18 | 2.07 | 2.07 | 9.24 ± 7.87 | > 14100 | – | – | – | – | – | – |
| O=C(Cn1ccc2ccccc21)NCCn1cnc(-c2ccccc2)cc1=O [SR-01000926956] | – | – | – | – | – | 100.27 ± 11.90 | – | – | – | – | 5.36 | 5.36 | 0.74 | 0.37 | 45.1 | Lipophilic Efficiency (logD) ([4]; HEK Agonist Activity): 2.87; Lipophilic Efficiency (logP) ([4]; HEK Agonist Activity): 2.87; Averaged Max % Response (±St. Dev.) ([4]; HEK Agonist Activity): −3.24 ± 9.86%; EC50 [4, 15]: > 14100 nM |
| CC(C)C(CC(=O)Cc1cccc2ccccc12)C(=O)Nc1cccc(C#N)c1 (stereo not drawn) [SR-05000022531] | – | – | – | – | – | 133.92 ± 16.41 | – | – | – | – | 3.47 | 3.47 | 0.09 | 0.37 | 19.6 | Lipophilic Efficiency (logD) ([4]; HEK Agonist Activity): 0.61; Lipophilic Efficiency (logP) ([4]; HEK Agonist Activity): 0.61; Averaged Max % Response (±St. Dev.) ([4]; HEK Agonist Activity): 1.20 ± 11.04%; EC50 [4, 15]: > 14100 nM |
| Cc1ccccc1CN1CCC(O)(c2ccc(Cl)c(C(F)(F)F)c2)CC1 [SR-05000022582] | 0.31 | 0.53 | 2.32 | 0.87 | 1800 | 135.48 ± 20.60 | 1.43 | −0.025 | 0.58 ± 18.59 | – | – | – | – | – | – | EC50 [4, 8]: > 14100 nM |
| CC(C)C1CC(=O)[C@@H]2C[C@@H](CC2C(=O)CC2CCOc3ccccc3C2)C2C=CC(=C2)CCC(=O)[C@@H](Cc2ccccc2)NC1=O (stereo partly drawn) [SR-05000709044] | – | – | – | – | – | 99.08 ± 8.57 | – | – | – | – | 6.97 | 6.95 | 0.79 | 0.24 | 13.8 | Lipophilic Efficiency (logD) ([4]; HEK Agonist Activity): 3.96; Lipophilic Efficiency (logP) ([4]; HEK Agonist Activity): 3.94; Averaged Max % Response (±St. Dev.) ([4]; HEK Agonist Activity): −2.44 ± 4.17%; EC50 ([4]; HEK Agonist Activity, parental non-transfected HEK cells): > 14100 nM |
| Cc1cccc(NC(=S)NNC(=O)CSCc2cccc3ccccc23)c1 [SR-07000002775] | – | – | – | – | – | 88.97 ± 19.06 | −0.064 | −0.064 | 2.05 ± 12.71 | > 14100 | 1.77 | 1.77 | 0.76 | 0.35 | 205 | – |
| CC(C)(C)c1cn2cccc(OCc3ccc(Cl)c(Cl)c3)c2n1 [SR-07000004609] | 0.39 | 0.44 | 0.98 | 0.98 | 358 | 87.84 ± 4.08 | −0.610 | −0.614 | −5.59 ± 4.81 | > 14100 | – | – | – | – | – | – |
